Results as given in ChEMBL document CHEMBL1201862, “PubChem BioAssay data set” (2004).
Active and inactive are the calls of the source.

Experiments:
[1] = biological target: T1, Dual specificity protein phosphatase 3 (Homo sapiens, UniProt P51452); experiment: VHR1 phosphatase inhibitors, primary screen, biochemical, absorbance, uHTS (AID 1654)
[2] = biological target: T1, Dual specificity protein phosphatase 3; experiment: VHR1 phosphatase inhibitors, biochemical (AID 1878)
[3] = biological target: T2, Calpain-2 catalytic subunit (Sus scrofa, UniProt P43367); experiment: pig calpain II inhibitor potency, dose response, biochemical, fluorogenic peptide substrate (AID 1420); assay type: functional
T2 sequence (P43367 whole entry): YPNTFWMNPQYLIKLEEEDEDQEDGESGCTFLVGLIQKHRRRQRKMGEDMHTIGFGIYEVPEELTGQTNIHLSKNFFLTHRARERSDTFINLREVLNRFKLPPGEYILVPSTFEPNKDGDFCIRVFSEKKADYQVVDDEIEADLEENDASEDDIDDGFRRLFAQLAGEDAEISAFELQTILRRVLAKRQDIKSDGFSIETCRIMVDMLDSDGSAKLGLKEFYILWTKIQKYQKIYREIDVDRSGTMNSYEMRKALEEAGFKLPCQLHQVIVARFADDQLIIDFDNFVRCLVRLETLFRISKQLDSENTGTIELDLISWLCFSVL

[4] = biological target: Dual specificity protein phosphatase 6 (Rattus norvegicus, UniProt Q64346); experiment: MKP-3 phosphatase inhibitors, primary screen, biochemical, rat enzyme, in vitro (AID 425)
[5] = inhibitors of Bluetongue virus cytopathic effect, confirmation, arbovirus, BSR cells (AID 1250); assay type: functional;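 further: protection from viral cytopathic effect measured as cell viability by ATP luminescence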
[6] = biological target: Eukaryotic translation initiation factor 4E (Mus musculus, UniProt P63073); experiment: eIF4E–eIF4G protein interaction inhibitors, dose response, biochemical, TR-FRET (AID 855); assay type: functional;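 further: potency for disrupting eIF4E binding to eIF4GI seen as loss of FRET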
[7] = biological target: T3, Small ubiquitin-related modifier 1 (Homo sapiens, UniProt P63165); experiment: inhibitors of SUMO1 peptide binding, dose response, biochemical, fluorescence polarization, uHTS hits (AID 624382); assay type: functional; conditions: read-out: IC50_Mean
[8] = biological target: T3, Small ubiquitin-related modifier 1; experiment: inhibitors of SUMO1 partner interactions, dose response, biochemical, FRET (AID 624383); assay type: functional; conditions: read-out: IC50_Mean
[9] = inhibitors of firefly luciferase expression or activity, dose response, H4 neuroglioma cells, luminescence (AID 1990); assay type: functional, cell-based
[10] = Luminescence Cell-Based Dose Response HTS to Identify Inhibitors of 5'UTR Stem-Loop Driven Prion Protein mRNA Translation in H4 Neuroglioblastoma Cells. [Related pubchem assays: 1827 (Project Summary), 1813 (Primary HTS)]; assay type: functional
[11] = inhibitors of SNCA 5'UTR-driven reporter translation, confirmation, H4 neuroglioma cells, luminescence (AID 1988); assay type: functional, cell-based
Tumor necrosis factor = Tumor necrosis factor (Homo sapiens, UniProt P01375); experiment: TNFa-triggered NF-kB activation inhibitors, SAR follow-up, cell-based, revised (AID 2337); assay type: functional
[12] = biological target: Nucleotide-binding oligomerization domain-containing protein 1 (Homo sapiens, UniProt Q9Y239); experiment: NOD1 signaling inhibitors, SAR follow-up, revised (AID 2333); assay type: functional
HEK293 = experiment: cells; conditions: Homo sapiens;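 further: cells exposed to compound for 14 hours overnight before viability readout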
[13] = biological target: Sphingosine 1-phosphate receptor 1 (Homo sapiens, UniProt P21453); experiment: Fluorescence-based counterscreen assay for S1P4 agonists: Cell-based dose response high throughput screening assay to identify agonists of the Sphingosine 1-Phosphate Receptor 1 (S1P1). [Related pubchem assays (depositor defined):AID1509, AID1523, AID1801, AID463107, AID463118, AID463119, AID463122, AID463123, AID463129, AID463225, AID504400, AID504460]; assay type: functional
[14] = biological target: Sphingosine 1-phosphate receptor 4 (Homo sapiens, UniProt O95977); experiment: Fluorescence dose response cell-based high throughput screening assay for agonists of the Sphingosine 1-Phosphate Receptor 4 (S1P4). [Related pubchem assays: 1509 (Primary screen.), 1523 (Confirmation screen in triplicates.)]; assay type: functional
Chain of Sphingosine 1-phosphate receptor 4 (O95977 whole entry): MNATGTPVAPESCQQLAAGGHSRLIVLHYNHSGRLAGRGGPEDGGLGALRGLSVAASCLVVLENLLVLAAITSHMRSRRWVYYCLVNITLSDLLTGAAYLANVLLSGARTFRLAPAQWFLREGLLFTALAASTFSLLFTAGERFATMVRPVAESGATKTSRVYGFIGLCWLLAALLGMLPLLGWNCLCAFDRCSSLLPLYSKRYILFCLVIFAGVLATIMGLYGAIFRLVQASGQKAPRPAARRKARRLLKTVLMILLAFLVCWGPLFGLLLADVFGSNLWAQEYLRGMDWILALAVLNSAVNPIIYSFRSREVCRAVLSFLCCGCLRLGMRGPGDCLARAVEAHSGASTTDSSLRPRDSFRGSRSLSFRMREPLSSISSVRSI

T3 sequence (P63165 whole entry): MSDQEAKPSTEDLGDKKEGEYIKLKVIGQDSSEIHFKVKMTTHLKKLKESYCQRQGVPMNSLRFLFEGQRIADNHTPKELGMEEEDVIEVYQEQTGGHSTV
T1 sequence (P51452 whole entry): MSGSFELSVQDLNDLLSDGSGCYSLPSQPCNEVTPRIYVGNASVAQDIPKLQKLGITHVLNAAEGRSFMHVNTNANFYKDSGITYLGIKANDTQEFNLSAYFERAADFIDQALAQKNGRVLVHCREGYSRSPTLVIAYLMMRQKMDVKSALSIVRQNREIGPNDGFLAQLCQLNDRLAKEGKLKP
Chain of Eukaryotic translation initiation factor 4E (P63073 whole entry): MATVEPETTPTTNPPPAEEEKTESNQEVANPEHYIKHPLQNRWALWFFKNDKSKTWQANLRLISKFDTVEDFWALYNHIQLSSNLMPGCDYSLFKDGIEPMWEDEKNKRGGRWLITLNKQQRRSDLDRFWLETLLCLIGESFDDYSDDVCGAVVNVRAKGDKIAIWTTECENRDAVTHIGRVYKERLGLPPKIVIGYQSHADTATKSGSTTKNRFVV
Chain of Tumor necrosis factor (P01375 whole entry, the tested form may be a part): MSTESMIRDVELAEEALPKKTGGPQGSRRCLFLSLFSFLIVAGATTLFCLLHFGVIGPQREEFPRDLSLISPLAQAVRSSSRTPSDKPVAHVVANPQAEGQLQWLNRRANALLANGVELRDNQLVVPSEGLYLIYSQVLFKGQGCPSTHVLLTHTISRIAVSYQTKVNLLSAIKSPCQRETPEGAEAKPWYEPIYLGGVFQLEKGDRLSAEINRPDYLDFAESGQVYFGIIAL
Chain of Dual specificity protein phosphatase 6 (Q64346 whole entry): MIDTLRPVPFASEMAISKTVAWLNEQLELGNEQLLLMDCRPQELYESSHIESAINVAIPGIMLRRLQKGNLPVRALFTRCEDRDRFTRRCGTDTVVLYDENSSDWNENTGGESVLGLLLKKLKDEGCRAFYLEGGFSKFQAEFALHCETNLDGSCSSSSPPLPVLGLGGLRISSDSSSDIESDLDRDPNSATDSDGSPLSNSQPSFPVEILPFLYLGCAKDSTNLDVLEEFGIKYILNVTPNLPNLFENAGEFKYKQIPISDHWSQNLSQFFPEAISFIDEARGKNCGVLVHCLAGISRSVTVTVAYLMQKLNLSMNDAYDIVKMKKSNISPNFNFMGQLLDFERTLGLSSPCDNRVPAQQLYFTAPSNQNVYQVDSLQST
Chain of Nucleotide-binding oligomerization domain-containing protein 1 (Q9Y239 whole entry, the tested form may be a part): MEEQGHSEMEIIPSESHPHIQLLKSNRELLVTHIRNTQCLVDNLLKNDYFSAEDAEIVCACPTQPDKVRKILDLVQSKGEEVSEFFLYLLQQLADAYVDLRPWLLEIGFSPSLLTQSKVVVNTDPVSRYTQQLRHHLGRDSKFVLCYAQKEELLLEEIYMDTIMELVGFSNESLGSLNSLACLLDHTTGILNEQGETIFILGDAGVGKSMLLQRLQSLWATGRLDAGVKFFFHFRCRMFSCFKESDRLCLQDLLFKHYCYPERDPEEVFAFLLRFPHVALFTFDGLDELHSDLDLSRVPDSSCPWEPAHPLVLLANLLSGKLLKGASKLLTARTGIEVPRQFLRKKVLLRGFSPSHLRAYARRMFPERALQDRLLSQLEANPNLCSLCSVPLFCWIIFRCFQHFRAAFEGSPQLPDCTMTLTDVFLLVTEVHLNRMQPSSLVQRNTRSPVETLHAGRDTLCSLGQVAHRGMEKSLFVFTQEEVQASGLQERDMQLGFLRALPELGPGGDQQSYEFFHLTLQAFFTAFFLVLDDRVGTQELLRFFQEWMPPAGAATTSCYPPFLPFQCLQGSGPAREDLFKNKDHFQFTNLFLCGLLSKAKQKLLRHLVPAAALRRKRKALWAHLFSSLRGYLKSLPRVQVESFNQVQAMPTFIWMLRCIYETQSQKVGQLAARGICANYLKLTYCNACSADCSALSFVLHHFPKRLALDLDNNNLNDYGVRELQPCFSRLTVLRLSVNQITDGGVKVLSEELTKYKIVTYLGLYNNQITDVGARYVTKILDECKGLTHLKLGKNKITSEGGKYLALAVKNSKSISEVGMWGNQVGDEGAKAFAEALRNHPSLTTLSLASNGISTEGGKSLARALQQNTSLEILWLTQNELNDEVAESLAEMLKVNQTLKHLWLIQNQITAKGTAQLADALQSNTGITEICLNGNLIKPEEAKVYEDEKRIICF
Chain of Sphingosine 1-phosphate receptor 1 (P21453 whole entry): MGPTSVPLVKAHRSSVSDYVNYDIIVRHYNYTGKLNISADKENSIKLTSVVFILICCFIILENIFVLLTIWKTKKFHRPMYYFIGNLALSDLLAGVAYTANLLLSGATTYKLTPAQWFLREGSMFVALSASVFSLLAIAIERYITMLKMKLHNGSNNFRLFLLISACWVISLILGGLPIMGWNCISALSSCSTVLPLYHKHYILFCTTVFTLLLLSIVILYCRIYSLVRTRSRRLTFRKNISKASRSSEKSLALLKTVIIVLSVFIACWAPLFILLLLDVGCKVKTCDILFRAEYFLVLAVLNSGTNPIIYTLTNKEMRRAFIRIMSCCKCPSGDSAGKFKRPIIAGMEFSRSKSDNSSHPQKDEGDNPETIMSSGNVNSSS

Compound | IC50 [1] | IC50 [2] | IC50 [3] | IC50 [4] | IC50 [5] | IC50 [6] | IC50 [7] | IC50 [8] | EC50 [9] | EC50 [10] | EC50 [11] | IC50 (Tumor necrosis factor) | IC50 [12] | IC50 (HEK293) | EC50 [13] | EC50 [14]
O=C(CSc1nc(-c2ccc(F)cc2)nc2c1Cc1ccccc1O2)Nc1ccc(C(=O)O)cc1 | 5.02 µM (active) | 4.04 µM (active) | > 50 µM (not active) | 10.1 µM (active) | 23 µM (active) | 50 µM (inactive) | > 66.6 µM (inactive) | 3.36 µM (active) |  |  |  |  |  |  |  | 
COCCn1c(C)cc(C(=O)COC(=O)c2cccc(O)c2)c1C |  |  |  |  |  |  |  |  | < 0.1 µM (active) | 0.121 µM (active) | 0.137 µM (active) | 0.704 µM (active) | 2.5 µM (active) | > 20 µM (inactive) |  | 
N#Cc1cc2c(=O)n3ccccc3nc2n(-c2ccccc2Cl)c1=O |  |  |  |  |  |  |  |  | > 120 µM (not active) | > 120 µM (not active) | 11 µM (active) |  |  |  | 10.4 µM (inactive) | 2.88 µM (active)
